Marks after values point to notes of the source that are not given here.
Tests used:
MC4r [1] = biological target: T1, MC4r (Homo sapiens, UniProt P32245); assay: cAMP functional study in human MC4r expression system approximating maximal physiologic receptor densities; type: cell-based; design: host or cells: TREx-293; settings: low receptor density human MC4r system; for Emax: read-out: relative efficacy, compared to NDP-α-MSH
Procedure: Assay for Agonist Activity. Accumulation of intracellular cAMP was examined as a measure of the ability of the peptides of the present invention to elicit a functional response in HEK-293 cells that express MC4-R. Confluent HEK-293 cells that express recombinant hMC4-R were detached from culture plates by incubation in enzyme-free cell dissociation buffer. Dispersed cells were suspended in Hanks' Balanced Salt Solution containing 10 mM HEPES (pH 7.5), 1 mM MgCl2, 1 mM glutamine, 0.5% albumin and 0.3 mM 3-isobutyl-1-methyl-xanthine (IBMX), a phosphodiesterase inhibitor. The cells were plated in 96-well plates at a density of 0.5×10^5 cells per well and pre-incubated for 10 minutes. Cells were exposed for 15 minutes at 37° C. to peptides of the present invention dissolved in DMSO (final DMSO concentration of 1%) at a concentration range of 0.05-5000 nM in a total assay volume of 200 μL. NDP-α-MSH was used as the reference agonist. cAMP levels were determined by an HTRF® cAMP cell-based assay system from Cisbio Bioassays utilizing cryptate-labeled anti-cAMP and d2-labeled cAMP, with plates read on a Perkin-Elmer Victor plate reader at […]. Data analysis was performed by nonlinear regression analysis with Graph-Pad Prism® software. The maximum efficacies of the test peptides of the present invention were compared to that achieved by the reference melanocortin agonist NDP-αMSH.
Low Receptor Density Systems. In functional studies preferably a human MC4r expression system approximating maximal human physiologic receptor densities is employed. In one aspect, a tetracycline-regulated mammalian expression system that uses regulatory elements from the E. coli Tn10-encoded tetracycline (Tet) resistance operon was employed (T-REx™ System, Invitrogen). By use of the T-REx™ System, expression of the gene of interest, the human MC4-R gene, was repressed in the absence of tetracycline or doxycycline and induced in the presence of tetracycline or doxycycline, with receptor density being dependent on the concentration of tetracycline or doxycycline. See generally Yao F. et al: Tetracycline repressor, tetR, rather than the tetR-mammalian cell transcription factor fusion derivatives, regulates inducible gene expression in mammalian cells. Hum. Gene Ther. 9:1939-1950 (1998), incorporated here by reference. Regulation was based on the binding of tetracycline or doxycycline, a derivative of tetracycline, to the Tet repressor and derepression of the promoter controlling expression of the human MC4-R gene. In general tetracycline or related regulators, such as tetracycline-derivatives, may be used to induce the gene expression. An inducible expression plasmid for expression of human MC4-R gene under the control of the strong human cytomegalovirus immediate-early (CMV) promoter and two tetracycline operator 2 (TetO2) sites was employed, together with a regulatory plasmid, pcDNA6/TR, which encodes the Tet repressor (TetR) under the control of the human SV40 promoter. Thus, expression of the human MC4-R gene from the inducible expression vector was controlled by the strong CMV promoter into which 2 copies of the tet operator 2 (TetO2) sequence had been inserted in tandem. The TetO2 sequences consisted of 2 copies of 19-nucleotide sequence separated by a 2 base pair spacer. Each 19 nucleotide TetO2 sequence served as the binding site for 2 molecules of the Tet repressor. The expression vector pcDNA4/TO/MC4R was introduced into TREx-293 (Invitrogen, R710-07), a cell line stably expressing the tetracycline repressor pcDNA6/TR using lipofectamin 2000 reagent (Invitrogen, 11668-019). Alternatively, both the expression vector and repressor are introduced into host cells by standard transformation or transfection methods.

MC4r [2] = biological target: T1, MC4r; assay: Competitive inhibition binding assay, MC4r; design: expressed in transfected cells; host or cells: HEK-293 (membrane homogenates); settings: binding studies
Procedure: (§1) A competitive inhibition binding assay is performed using membrane homogenates prepared from HEK-293 cells that express recombinant hMC1ra, hMC4r, hMC3r, or hMC5r, and from B16-F10 mouse melanoma cells (containing endogenous MC1r). In the examples that follow, all values are for human recombinant receptors unless otherwise noted. Assays are performed in 96 well GF/B Millipore multiscreen filtration plates (MAFB NOB10) pre-coated with 0.5% bovine serum albumin (Fraction V). […] After incubation for 60 to 90 minutes at 37° C., the assay mixture is filtered and the membranes washed three times with ice-cold buffer. Filters are dried and counted in a gamma counter for bound radioactivity.
(§2) Maximal specific binding (100%) is defined as the difference in radioactivity (cpm) bound to cell membranes in the absence and presence of 1 μM NDP-α-MSH. […] Each assay is conducted in duplicate or triplicate and the actual mean values are described, with results less than 0% reported as 0%. Ki values for test compounds are determined using Graph-Pad Prism® curve-fitting software.
Competitive Binding Assay Using Eu-NDP-α-MSH. Alternatively, a competitive inhibition binding assay is performed employing Eu-NDP-α-MSH (PerkinElmer Life Sciences catalog No. AD0225) with determination by time-resolved fluorometry (TRF) of the lanthanide chelate. […] After incubation for 90 minutes at 37° C., the reaction was stopped by filtration over Acro Well 96-well filter plates (Pall Life Sciences). The filter plates were washed 4 times with 200 μL of ice-cold phosphate-buffered saline. DELFIA Enhancement solution (PerkinElmer Life Sciences) was added to each well. The plates were incubated on a shaker for 15 minutes and read at 340 nm excitation and 615 nm emission wavelengths. Each assay was conducted in duplicate and mean values were utilized. Ki values were determined by curve-fitting with Graph-Pad Prism® software using a one-site fixed-slope competition binding model.

MC1r = biological target: T2, MC1r (Homo sapiens, UniProt Q01726); assay: Competitive inhibition binding assay, MC1r; settings: binding studies
T2 construct: expressed in transfected cells; host or cells: HEK-293 (membrane homogenates)
T2 sequence (Q01726 whole entry): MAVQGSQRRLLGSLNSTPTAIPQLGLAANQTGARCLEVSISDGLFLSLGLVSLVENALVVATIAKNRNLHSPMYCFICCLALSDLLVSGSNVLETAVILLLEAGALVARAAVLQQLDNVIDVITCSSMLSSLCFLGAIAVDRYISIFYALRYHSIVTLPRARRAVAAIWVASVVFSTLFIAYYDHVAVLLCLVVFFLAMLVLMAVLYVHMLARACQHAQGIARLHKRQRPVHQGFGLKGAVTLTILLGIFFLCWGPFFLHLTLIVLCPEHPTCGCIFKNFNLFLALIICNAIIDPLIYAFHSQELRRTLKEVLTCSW
Procedure: as §1, §2

C57BL/6 male DIO mice = assay: Body weight and food intake in vivo study in diet induced obese mice; design: species or system mouse; settings: for Body Weight Change (%) Mean / Food Intake - 24 Hours (g) Mean: 1 mg/kg subcutaneous twice daily
Procedure: Compound 7.1 was assessed in a body weight and food intake in vivo study in diet induced obese […] mice. C57BL/6 male DIO mice were utilized, that were 17 weeks of age on arrival. Animals were pre-conditioned on a high-fat diet for 11 weeks by Jackson Labs. […] Animals were single housed within a limited access rodent facility, and provided ad libitum with a commercial rodent diet and free access to drinking water. Animals were randomized into five groups, a vehicle group, three dose levels of compound 7.1 (3 mg/kg, 10 mg/kg and 30 mg/kg), and Peptide A, a positive control cyclic peptide of the formula Ac-Arg-cyclo(Orn-Asn-D-Phe-Arg-Trp-Glu)-NH2. Following three days of sham dosing, animals were dosed for three days, with vehicle or Compound 7.1 dosed orally once daily at within one hour of lights out in the AM, and Peptide A dosed by subcutaneous injection twice daily within one hour before lights out and six hours after lights out. Body weights were measured one hour prior to lights out, and feed weights were measured both one hour prior to lights out and six hours post lights out.
*p<0.05 vs. sham (vehicle control) using two-way ANOVA followed by Dunnett's post-test.
**p<0.01 vs sham (vehicle control) using two-way ANOVA followed by Dunnett's post-test.

T1 sequence (P32245 whole entry): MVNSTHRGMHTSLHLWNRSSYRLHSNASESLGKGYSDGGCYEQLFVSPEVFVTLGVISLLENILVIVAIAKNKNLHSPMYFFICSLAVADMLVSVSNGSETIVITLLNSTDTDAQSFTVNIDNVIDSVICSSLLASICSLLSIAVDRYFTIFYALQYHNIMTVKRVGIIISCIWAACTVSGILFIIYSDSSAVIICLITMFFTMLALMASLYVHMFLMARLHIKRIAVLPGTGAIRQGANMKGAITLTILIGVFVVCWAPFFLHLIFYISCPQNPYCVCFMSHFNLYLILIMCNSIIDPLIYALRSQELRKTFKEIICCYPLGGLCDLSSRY

Row | Molecule | EC50 (MC4r [1]) [nM] | Emax (MC4r [1]) [%] | Ki (MC4r [2]) [nM] | further results
1 | CC(=O)N1CCC(N(CC(C)C)N2CCN(C(=O)[C@@H](Cc3ccc(Cl)cc3)NC(=O)C3(C)CCCN3)CC2)CC1 (stereo partly drawn) [Compound 7.11, N-[(1R)-2-[4-[(1-acetyl-4-piperidyl)-isobutyl-amino]piperazin-1-yl]-1-[(4-chlorophenyl)methyl]-2-oxo-ethyl]-2-methyl-pyrrolidine-2-carboxamide] | 6 | 13 | 6 | –
2 | CC(=O)N1CCC(N(CC(C)C)N2CCN(C(=O)[C@@H](Cc3ccc(Cl)cc3)NC(=O)C3(N)CCCCC3)CC2)CC1 [Compound 7.5, N-[(1R)-2-[4-[(1-acetyl-4-piperidyl)-isobutyl-amino]piperazin-1-yl]-1-[(4-chlorophenyl)methyl]-2-oxo-ethyl]-1-amino-cyclohexanecarboxamide] | 9 | 15 | 4 | –
3 | CC(C)CN(C1CCN(C(=O)CO)CC1)N1CCN(C(=O)[C@@H](Cc2ccc(Cl)cc2)NC(=O)C(C)(C)N)CC1 [Compound 7.10, 2-amino-N-[(1R)-1-[(4-chlorophenyl)methyl]-2-[4-[[1-(2-hydroxyacetyl)-4-piperidyl]-isobutyl-amino]piperazin-1-yl]-2-oxo-ethyl]-2-methyl-propanamide] | 9 | 22 | 5 | –
4 | CNC(C)(C)C(=O)N[C@H](Cc1ccc(Cl)cc1)C(=O)N1CCN(N(CC(C)C)C2CCN(C(C)=O)CC2)CC1 [Compound 7.9, N-[(1R)-2-[4-[(1-acetyl-4-piperidyl)-isobutyl-amino]piperazin-1-yl]-1-[(4-chlorophenyl)methyl]-2-oxo-ethyl]-2-methyl-2-(methylamino)propanamide] | – | – | – | relative efficacy, compared to NDP-α-MSH (MC4r [1]): 19%
5 | CCC(N)(CC)C(=O)N[C@H](Cc1ccc(Cl)cc1)C(=O)N1CCN(N(CC(C)C)C2CCN(C(C)=O)CC2)CC1 [Compound 7.6, N-[(1R)-2-[4-[(1-acetyl-4-piperidyl)-isobutyl-amino]piperazin-1-yl]-1-[(4-chlorophenyl)methyl]-2-oxo-ethyl]-2-amino-2-ethyl-butanamide] | 25 | 34 | 13 | –
6 | CC(=O)N1CCC(N(CC(C)C)N2CCN(C(=O)[C@@H](Cc3ccc(Cl)cc3)NC(=O)C3(N)CC3)CC2)CC1 [Compound 7.2, N-[(1R)-2-[4-[(1-acetyl-4-piperidyl)-isobutyl-amino]piperazin-1-yl]-1-[(4-chlorophenyl)methyl]-2-oxo-ethyl]-1-amino-cyclopropanecarboxamide] | – | 3 | 5 | Ki (MC1r): 40 nM
7 | Ac-Arg-cyclo(Orn-Asn-D-Phe-Arg-Trp-Glu)-NH2 [Peptide A] | – | – | – | Body Weight Change (%) Mean (C57BL/6 male DIO mice; Day 0): 0%; Food Intake - 24 Hours (g) Mean (C57BL/6 male DIO mice; Day 0, 24 hours post lights out): 0.99** g; Body Weight Change (%) Mean (C57BL/6 male DIO mice; Day 1): −5.69** %; Food Intake - 24 Hours (g) Mean (C57BL/6 male DIO mice; Day 1, 24 hours post lights out): 1.10** g; Body Weight Change (%) Mean (C57BL/6 male DIO mice; Day 2): −8.37** %; Food Intake - 24 Hours (g) Mean (C57BL/6 male DIO mice; Day 2, 24 hours post lights out): 1.67** g; Body Weight Change (%) Mean (C57BL/6 male DIO mice; Day 3): −8.78** %; effect on feed intake at 24 hours post lights out (in words) (C57BL/6 male DIO mice; 1 mg/kg, entirety of the study, compared with sham animals): significantly inhibited feed intake; effect on body weight (in words) (C57BL/6 male DIO mice; two times daily 1 mg/kg, throughout the study): decreased animal body weights
8 | CC(=O)N1CCC(N(CC(C)C)N2CCN(C(=O)[C@@H](Cc3ccc(Cl)cc3)NC(=O)C3(N)CCCCCC3)CC2)CC1 [Compound 7.7, N-[(1R)-2-[4-[(1-acetyl-4-piperidyl)-isobutyl-amino]piperazin-1-yl]-1-[(4-chlorophenyl)methyl]-2-oxo-ethyl]-1-amino-cycloheptanecarboxamide] | – | 8 | 3 | –
9 | CCNC(=O)N1CCC(N(CC(C)C)N2CCN(C(=O)[C@@H](Cc3ccc(Cl)cc3)NC(=O)C(C)(C)N)CC2)CC1 [Compound 7.8, 4-[[4-[(2R)-2-[(2-amino-2-methyl-propanoyl)amino]-3-(4-chlorophenyl)propanoyl]piperazin-1-yl]-isobutyl-amino]-N-ethyl-piperidine-1-carboxamide] | 52 | 28 | 6 | Ki (MC1r): 150 nM
10 | CC(=O)N1CCC(N(CC(C)C)N2CCN(C(=O)[C@@H](Cc3ccc(Cl)cc3)NC(=O)C3(N)CCCC3)CC2)CC1 [Compound 7.4, N-[(1R)-2-[4-[(1-acetyl-4-piperidyl)-isobutyl-amino]piperazin-1-yl]-1-[(4-chlorophenyl)methyl]-2-oxo-ethyl]-1-amino-cyclopentanecarboxamide] | – | 10 | 4 | –
11 | CC(=O)N1CCC(N(CC(C)C)N2CCN(C(=O)[C@@H](Cc3ccc(Cl)cc3)NC(=O)C3(N)CCC3)CC2)CC1 [Compound 7.3, N-[(1R)-2-[4-[(1-acetyl-4-piperidyl)-isobutyl-amino]piperazin-1-yl]-1-[(4-chlorophenyl)methyl]-2-oxo-ethyl]-1-amino-cyclobutanecarboxamide] | – | 10 | 3 | –
